Data: EPA's ToxRefDB 2

Experiments:
dog [1] = details: Subchronic oral toxicity in nonrodent, beagle, Capsule, dose end: 90 day, group: systemic, systemic / clinical chemistry / [other] / [other] + systemic / clinical chemistry / alkaline phosphatase (alp/alk) / alkaline phosphatase (…
rat [2] = details: Combined chronic toxicity/carcinogenicity, sprague dawley, Oral, Feed, dose end: 24 month, group: systemic
rat [3] = details: Subchronic oral toxicity in rodents, other, Feed, dose end: 90 day, group: systemic, systemic / in life observation / body weight / body weight gain + systemic / pathology microscopic / kidney / regeneration + systemic / …
rat [4] = details: Prenatal developmental toxicity study, other, Oral, Gavage/Intubation, dose end: 15 GD
rat [5] = details: Multigenerational reproductive toxicity study, sprague dawley, Oral, Feed, dose end: 2 generation
mouse = details: Carcinogenicity, cd1, Oral, Feed, dose end: 78 week, group: systemic
rat [6] = details: Subchronic oral toxicity in rodents, sprague dawley, Feed, dose end: 90 day, group: systemic, systemic / organ weight / kidney / absolute + systemic / organ weight / kidney / relative to body weight + systemic / organ weight / kidney…
rat [7] = details: Subchronic oral toxicity in rodents, other, Feed, dose end: 90 day, group: systemic
dog [8] = details: Subchronic oral toxicity in nonrodent, beagle, Feed, dose end: 90 day, group: systemic, systemic / clinical chemistry / alkaline phosphatase (alp/alk) / alkaline phosphatase (alp/alk) + systemic / organ weight / liver / absolute…
[9] = systemic / in life observation / body weight / body weight + systemic / in life observation / body weight / body weight gain + systemic / in…
[10] = group: developmental, developmental / developmental malformation / aortic arch / retroesophageal + developmental / developmental malformation / bone / misshapen…
[11] = group: maternal, systemic / in life observation / body weight / body weight + systemic / in life observation / body weight / body weight gain
[12] = group: maternal, systemic / in life observation / body weight / body weight + systemic / in life observation / body weight / body weight gain + reproductive…
[13] = group: offspring, developmental / offspring survival late / [other] / [other] + developmental / offspring survival late / viability index / viability index + …
[14] = group: offspring, systemic / pathology microscopic / kidney / dilatation
[15] = group: parental, systemic / in life observation / body weight / body weight + systemic / in life observation / food consumption / food consumption + systemic…
[16] = systemic / in life observation / mortality / mortality + systemic / organ weight / kidney / absolute + systemic / organ weight / kidney / …
[17] = systemic / pathology microscopic / liver / inclusion body intracytoplasmic

O=C(O)CCCOc1ccc(Cl)cc1Cl [2,4-DB]
LEL (dog [1]): 25 mg/kg/day
LOAEL (dog [1]): 25 mg/kg/day
NEL (dog [1]): 8 mg/kg/day
NOAEL (dog [1]): 8 mg/kg/day
LOAEL (rat [2]; [9]): 30 mg/kg/day
NOAEL (rat [2]; [9]): 3 mg/kg/day
NEL (rat [2]; systemic / organ weight / liver / absolute + systemic / organ weight / heart / absolute + systemic / organ weight / spleen / absolute + …): 90 mg/kg/day
LEL (rat [3]): 50 mg/kg/day
LOAEL (rat [3]): 50 mg/kg/day
NEL (rat [3]): 15.8 mg/kg/day
NOAEL (rat [3]): 15.8 mg/kg/day
LEL (rat [4]; [10]): 125 mg/kg/day
LOAEL (rat [4]; [10]): 125 mg/kg/day
NEL (rat [4]; [10]): 62.5 mg/kg/day
NOAEL (rat [4]; [10]): 62.5 mg/kg/day
LEL (rat [4]; [11]): 62.5 mg/kg/day
LOAEL (rat [4]; [11]): 62.5 mg/kg/day
NEL (rat [4]; [12]): 31.2 mg/kg/day
NOAEL (rat [4]; [12]): 31.2 mg/kg/day
LOAEL (rat [5]; [13]): 112 mg/kg/day
NOAEL (rat [5]; [13]): 25 mg/kg/day
LEL (rat [5]; [14]): 25 mg/kg/day
NEL (rat [5]; [14]): 5 mg/kg/day
LEL (rat [5]; [15]): 112 mg/kg/day
LOAEL (rat [5]; [15]): 112 mg/kg/day
NEL (rat [5]; [15]): 25 mg/kg/day
NOAEL (rat [5]; [15]): 25 mg/kg/day
LOAEL (mouse; [16]): 112 mg/kg/day
NOAEL (mouse; [16]): 37.5 mg/kg/day
LEL (mouse; systemic / in life observation / mortality / mortality + systemic / pathology microscopic / kidney / amyloid deposition + systemic / …): 112 mg/kg/day
NEL (mouse; systemic / organ weight / kidney / absolute + systemic / organ weight / kidney / relative to body weight + systemic / organ weight / liver…): 37.5 mg/kg/day
LEL (rat [6]): 41.9 mg/kg/day
LOAEL (rat [6]): 41.9 mg/kg/day
NEL (rat [6]): 4.16 mg/kg/day
NOAEL (rat [6]): 4.16 mg/kg/day

COCC(=O)N(c1c(C)cccc1C)[C@H](C)C(=O)OC [Metalaxyl-M]
LEL (rat [7]; [17]): 44.8 mg/kg/day
NEL (rat [7]; [17]): 16.8 mg/kg/day
LOAEL (rat [7]; systemic / pathology microscopic / liver / infiltration cellular + systemic / pathology microscopic / liver / inclusion body …): 90.5 mg/kg/day
LEL (dog [8]): 38.6 mg/kg/day
LOAEL (dog [8]): 38.6 mg/kg/day
NEL (dog [8]): 7.25 mg/kg/day
NOAEL (dog [8]): 7.25 mg/kg/day
